The results in this text go back to ChEMBL document CHEMBL6177971, “Iterative Optimization Yields Stapled Peptides with Superior Pharmacokinetics and Potency for Renal Fibrosis Treatment” (J Med Chem, 2025).

Broadly, the half-life is the time in which the quantity being followed falls by half. A high value points to slow decline.

Series [1] is described as follows: Half life of compound. Format: physicochemical.
A short description of series [2]: Stability in C57BL/6J mouse serum assessed as proteolysis resistance measured up to 72 hrs by HPLC analysis. Format: ADME, cell-free.
Series [3] concerns NIH3T3. Description: Cytotoxicity against mouse NIH3T3 cells assessed as inhibition of cell viability up to 160 uM incubated for 48 hrs by CCK8 assay. Format: toxicity, cell-based. The note with it: nih3t3, 48 h. A general note: Formazan colour is commonly taken as a measure of viable cells.
In series [4] the test system is NIH3T3. Description: Inhibition of TGF-beta1-induced EMT in mouse NIH3T3 cells assessed as decrease in fibronectin level at 10 uM incubated for 48 hrs by Western blot analysis. Format: functional, cell-based. In general terms: In western blotting, separated proteins are transferred to a membrane and probed.
Series [5] relates to NIH3T3. Description: Inhibition of TGF-beta1-induced EMT in mouse NIH3T3 cells assessed as decrease in alpha-SMA level at 10 uM incubated for 48 hrs by Western blot analysis. It counts as functional, cell-based.
The test system of series [6] is NIH3T3. Description: Cytotoxicity against mouse NIH3T3 cells assessed as inhibition of cell viability at 10 to 40 uM incubated for 48 hrs by CCK8 assay. It counts as toxicity, cell-based. The conditions noted are these: nih3t3, 48 h, dose 10-40 µM.

Active and inactive are the calls of the source. The calls are words filed in the database; no cut-off is given here. *1 amine or outer side, *2 acyl side, *3 side chain or, on linkers, in order; H or OH if unused. Where a SMILES comes first, the peptide text is derived from it. Bridges are numbered along the chain shown (N, C = ends). [ ]: non-standard residue; d: D form. Gly(pent-4-enyl) = C=CCCC[C@H](N)C(=O)O; Octanediyl(1,8) = C(CCCC[*:2])CCC[*:1]; S5 = C=CCCC[C@](C)(N)C(=O)O; X2 = C(CCC[*:2])CC[*:1]

`CC[C@H](C)[C@@H]1NC(=O)[C@H](CCC(N)=O)NC(=O)[C@@H]2CCCN2C(=O)[C@@H](NC(=O)[C@H](CC(N)=O)NC(=O)[C@H](Cc2c[nH]cn2)NC(=O)[C@@H](N)CC(=O)O)CSCCCCCCCCSC[C@@H](C(N)=O)NC1=O` (H-DHNCPQIC-NH2; linker 4-8 via Octanediyl(1,8)): the half-life in series [1] was 2.01 h. Also, in series [2], the Stability entry is reported as “Unstable”. Further, the Activity entry in the series with NIH3T3 [3] was “Non-toxic”. For the same compound, the inhibition result with NIH3T3 [4] and in the series on NIH3T3 [5] was “Active” throughout.

In series [1], `C=CCCC[C@](C)(NC(=O)[C@H](CCC(N)=O)NC(=O)[C@@H]1CCCN1C(=O)[C@@H](CC(N)=O)NC(=O)[C@](C)(CCCC=C)NC(=O)[C@H](Cc1c[nH]cn1)NC(=O)[C@@H](CC(=O)O)NC(=O)CCCCCCCCCCC)C(=O)N[C@@H](CCCNC(=N)N)C(N)=O` showed a half-life of 208 h. In series [2], the Stability entry is given as “Stable”. Besides, the inhibition entry in the series with NIH3T3 [4] and in the series with NIH3T3 [5] was “Active” each time. In addition, the Activity result with NIH3T3 [6] was “Toxic”.

With `C=CCCC[C@](C)(NC(=O)[C@H](Cc1c[nH]cn1)NC(=O)[C@@H](N)CC(=O)O)C(=O)N[C@H]1CSCCCCCCSC[C@@H](C(N)=O)NC(=O)[C@H]([C@@H](C)CC)NC(=O)[C@H](CCC(N)=O)NC(=O)[C@@H]2CCCN2C1=O` (H-DH[S5]CPQIC-NH2; linker 4-8 via X2), the half-life in series [1] was 1.81 h. Moreover, in series [2], the Stability result is “Unstable”. Also, the Activity result in the series on NIH3T3 [3] was “Non-toxic”. Besides, the inhibition result with NIH3T3 [4] and in the series on NIH3T3 [5] was “Active” throughout.

In series [1], `C=CCCC[C@](C)(NC(=O)[C@H](Cc1c[nH]cn1)NC(=O)[C@@H](CC(=O)O)NC(=O)CCCCCCCCCCC)C(=O)N[C@H]1CSCCCCCCSC[C@@H](C(N)=O)NC(=O)[C@@H](C)NC(=O)[C@H](CCC(N)=O)NC(=O)[C@@H]2CCCN2C1=O` showed a half-life of 91.6 h. The Stability entry in series [2] is reported as “Stable”. Further, the Activity entry with NIH3T3 [3] is “Toxic”. Moreover, the inhibition result in the series on NIH3T3 [4] and in the series with NIH3T3 [5] was “Active” in each case.

Compound `C[C@@]1(C(=O)N[C@@H](CCCNC(=N)N)C(N)=O)CCC/C=C\CCC[C@](C)(NC(=O)[C@H](Cc2cnc[nH]2)NC(=O)[C@@H](N)CC(=O)O)C(=O)N[C@@H](CC(N)=O)C(=O)N2CCC[C@H]2C(=O)N[C@@H](CCC(N)=O)C(=O)N1` (H-DH[S5]NPQ[S5]R-NH2; staple (Z) 3-7) gave a half-life in series [1] of 1.11 h. For the same compound, the Stability entry in series [2] is “Stable”. Also, in the series with NIH3T3 [3], the Activity entry is “Non-toxic”. Moreover, the inhibition entry with NIH3T3 [4] and with NIH3T3 [5] was “inactive” throughout.

For `C=CCCC[C@](C)(NC(=O)[C@@H](C)NC(=O)[C@H](CCC(N)=O)NC(=O)[C@@H]1CCCN1C(=O)[C@](C)(CCCC=C)NC(=O)[C@H](CC(N)=O)NC(=O)[C@H](Cc1c[nH]cn1)NC(=O)[C@@H](CC(=O)O)NC(=O)CCCCCCCCCCC)C(N)=O`, the half-life in series [1] was 656 h. Further, the Stability entry in series [2] is recorded as “Stable”. Also, the inhibition result in the series with NIH3T3 [4] and in the series on NIH3T3 [5] was “Active” throughout. In addition, the Activity result in the series with NIH3T3 [6] is on record as “Toxic”.

Turning to `C=CCCC[C@H](NC(=O)[C@H](CCC(N)=O)NC(=O)[C@@H]1CCCN1C(=O)[C@H](CC(N)=O)NC(=O)[C@](C)(CCCC=C)NC(=O)[C@H](Cc1c[nH]cn1)NC(=O)[C@@H](N)CC(=O)O)C(=O)N[C@@H](CCCNC(=N)N)C(N)=O` (H-DH[S5]NPQ[Gly(pent-4-enyl)]R-NH2), the half-life in series [1] is 0.9 h. For the same compound, the Stability entry in series [2] was “Stable”. For the same compound, the Activity entry in the series on NIH3T3 [3] is reported as “Non-toxic”. In addition, the inhibition result with NIH3T3 [4] and in the series on NIH3T3 [5] was “Active” each time.
